# Experimental data taken from patent US9169252B2 (BRISTOL-MYERS SQUIBB COMPANY, priority 2014, dated 2015).
# Read-outs that look alike come from different tables or passages of the source.
# How the values were obtained:
# IRAK4 = IRAK4 (Homo sapiens (Human), UniProt Q9NWZ3); assay: IRAK4 Inhibition Assay; assay type: biochemical; settings: ATP 500 μM; IRAK4 0.6 nM; read-out: IRAK4 IC50
# Method in brief: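 Mobility-shift readout: fluorescent substrate and phosphoproduct resolved electrophoretically on Caliper LabChip 3000 after EDTA quench (35 mM). Enzyme reaction of IRAK4, substrates and test compound ran 60 min at room temperature.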
# [1] = test system: TLR2 induced IL-6 in peripheral blood mononuclear cells (PBMCs); assay: PBMC TLR2 Induced IL-6 Assay; assay type: cell-based, human; settings: human PBMCs, lipoteichoic acid stimulated, IL-6 by ELISA; for IC50: read-out: Cell IC50; for EC50: read-out: Cell EC50
# Method in brief: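 Lipoteichoic acid at 10 µg/ml served as TLR2 stimulus for 5 hours, following a 30-minute compound pretreatment at 37° C. Cells were Ficoll-isolated human PBMCs, 250000 cells/well, cultured in RPMI plus 10% heat-inactivated FCS.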
# Sequence of IRAK4 (Q9NWZ3 whole entry, species assumed): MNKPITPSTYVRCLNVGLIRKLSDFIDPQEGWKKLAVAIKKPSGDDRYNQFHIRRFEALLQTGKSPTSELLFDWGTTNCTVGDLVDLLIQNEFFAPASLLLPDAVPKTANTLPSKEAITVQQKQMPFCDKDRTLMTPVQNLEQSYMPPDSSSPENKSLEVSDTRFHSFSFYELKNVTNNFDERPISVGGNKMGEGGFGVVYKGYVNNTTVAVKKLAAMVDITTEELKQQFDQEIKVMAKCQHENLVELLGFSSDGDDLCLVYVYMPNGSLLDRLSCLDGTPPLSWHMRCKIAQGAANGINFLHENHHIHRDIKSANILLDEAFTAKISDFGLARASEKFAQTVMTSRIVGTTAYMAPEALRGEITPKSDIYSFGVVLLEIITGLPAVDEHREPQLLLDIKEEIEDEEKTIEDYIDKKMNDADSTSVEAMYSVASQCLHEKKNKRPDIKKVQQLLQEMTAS
SMILES,IC50 (IRAK4) [µM],"IC50 ([1]; Homo sapiens, PBMC) [µM]","EC50 ([1]; Homo sapiens, PBMC) [µM]",EC50 [1] [µM]
CC(C)(F)[C@H](F)CNC(=O)c1cnc(-n2ncc3cc(C#N)cnc32)cc1Nc1cnn(CC(F)F)c1 [Example 395],0.0022,0.085,–,–
CC(C)(O)[C@H]1CC[C@H](NC(=O)c2cnc(-n3ncc4cc(C#N)cnc43)cc2Nc2cnn(CC(F)F)c2)CC1 [Example 396],0.0086,0.157,–,–
Cn1cc(Nc2cc(-n3ncc4cc(Cl)cnc43)ncc2C(=O)NC[C@@H](F)C(C)(C)O)cn1 [Example 398],0.0049,0.277,–,–
CC(C)(O)[C@H](F)CNC(=O)c1cnc(-n2cnc3cc(Cl)cnc32)cc1Nc1cnn(C(F)F)c1 [Example 400],0.0078,0.156,–,–
CC(C)(O)[C@H](F)CNC(=O)c1cnc(-n2cnc3cc(C#N)cnc32)cc1Nc1cnn(C(F)F)c1 [Example 401],0.0057,0.485,–,–
CC(C)(F)[C@H](F)CNC(=O)c1cnc(-n2cnc3cc(C#N)cnc32)cc1Nc1cnn(CC(F)F)c1 [Example 403],0.0025,0.147,–,–
CC(C)(O)[C@H](F)CNC(=O)c1cnc(-n2ncc3cc(C#N)cnc32)cc1Nc1cc(C2CC2)n[nH]1 [Example 404],0.0011,0.164,–,–
CC(C)(O)[C@H](F)CNC(=O)c1cnc(-n2ncc3cc(C#N)cnc32)cc1Nc1ccn(CC(F)F)n1 [Example 407],0.0031,0.287,–,–
CC(C)(O)[C@H](F)CNC(=O)c1cnc(-n2ncc3cc(C#N)cnc32)cc1Nc1cnn(-c2ncc(F)cn2)c1 [Example 411],0.0016,–,0.051,–
CC(C)(O)[C@H](F)CNC(=O)c1cnc(-n2ncc3cc(C#N)cnc32)cc1Nc1cc(-c2ccccc2)n[nH]1 [Example 412],0.0036,0.053,–,–
Cc1cc(Nc2cc(-n3ncc4cc(C#N)cnc43)ncc2C(=O)NC[C@@H](F)C(C)(C)O)n(C)n1 [Example 413],0.007,0.382,–,–
CC(C)(O)[C@H](F)CNC(=O)c1cnc(-n2ccc3cc(C#N)cnc32)cc1Nc1cccc(S(N)(=O)=O)c1 [Example 416],0.0019,–,0.058,–
CC(C)(O)/C=C/Nc1cc(-n2ccc3cc(C#N)cnc32)ncc1C(=O)NC[C@@H](F)C(C)(C)O [Example 419],0.0048,–,0.107,–
CC(C)(O)[C@H](F)CNC(=O)c1cnc(-n2ccc3cc(C#N)cnc32)cc1Nc1ccc2ncoc2c1 [Example 421],0.0019,0.167,–,–
Cn1nccc1Nc1cc(-n2ccc3cc(C#N)cnc32)ncc1C(=O)NC[C@@H](F)C(C)(C)O [Example 424],0.006,–,–,0.338
CC(C)(O)[C@H](F)CNC(=O)c1cnc(-n2ccc3cc(C#N)cnc32)cc1NCCC(F)(F)F [Example 425],0.0018,–,0.154,–
CC(C)(O)[C@H](F)CNC(=O)c1cnc(-n2ccc3cc(C#N)cnc32)cc1Nc1cccc(C#N)c1F [Example 430],0.0021,–,0.208,–
CC(C)(O)[C@H](F)CNC(=O)c1cnc(-n2ccc3cc(C#N)cnc32)cc1Nc1cccc(-c2ncc[nH]2)c1 [Example 431],0.0021,–,0.106,–
CC(C)NC(=O)[C@H](F)CNc1cc(-n2ccc3cc(C#N)cnc32)ncc1C(=O)NC[C@@H](F)C(C)(C)O [Example 435],0.0099,–,0.291,–
CC(C)(O)[C@H](F)CNC(=O)c1cnc(-n2ccc3cc(C#N)cnc32)cc1Nc1ccc2nn[nH]c2c1 [Example 436],0.0018,–,0.165,–
CC(C)(O)[C@H](F)CNC(=O)c1cnc(-n2ccc3cc(C#N)cnc32)cc1Nc1ccc2[nH]ncc2c1 [Example 438],0.0025,–,0.033,–
CC(C)(O)[C@H](F)CNC(=O)c1cnc(-n2ccc3cc(C#N)cnc32)cc1N[C@@H]1CCOC1 [Example 440],0.0019,–,0.072,–
C[C@H](Nc1cc(-n2ccc3cc(C#N)cnc32)ncc1C(=O)NC[C@@H](F)C(C)(C)O)C1CC1 [Example 451],0.0044,–,0.429,–
CC(C)Nc1cc(-n2ccc3cc(C#N)cnc32)ncc1C(=O)NCCNS(=O)(=O)N1CCOCC1 [Example 452],0.0052,0.252,0.7,–
CC(C)(O)[C@H](F)CNC(=O)c1cnc(-n2ccc3cc(C#N)cnc32)cc1N[C@@H]1COC[C@H]1O [Example 455],0.0022,–,–,0.072
CC(C)(C)OC(=O)N1CC(Nc2cc(-n3ccc4cc(C#N)cnc43)ncc2C(=O)NC[C@@H](F)C(C)(C)O)C1 [Example 457],0.0103,1.24,0.458,–

# More lines, main results first:
IC50 (IRAK4) [µM],SMILES,"IC50 ([1]; Homo sapiens, PBMC) [µM]","EC50 ([1]; Homo sapiens, PBMC) [µM]",EC50 [1] [µM]
0.0066,CC(C)(O)C(F)(F)CNC(=O)c1cnc(-n2ncc3cc(C#N)cnc32)cc1Nc1cnn(CC(F)F)c1 [Example 397],0.21,–,–
0.0013,Cn1cc(Nc2cc(-n3ccc4cc(C#N)cnc43)ncc2C(=O)NC[C@@H](F)C(C)(C)O)cn1 [Example 399],0.024,–,–
0.0025,CC(C)(F)[C@H](F)CNC(=O)c1cnc(-n2cnc3cc(Cl)cnc32)cc1Nc1cnn(CC(F)F)c1 [Example 402],0.412,–,–
0.0062,Cc1cc(Nc2cc(-n3ncc4cc(C#N)cnc43)ncc2C(=O)NC[C@@H](F)C(C)(C)O)[nH]n1 [Example 405],0.561,–,–
0.0048,CC(C)c1cc(Nc2cc(-n3ncc4cc(C#N)cnc43)ncc2C(=O)NC[C@@H](F)C(C)(C)O)[nH]n1 [Example 406],0.066,–,–
0.0018,CC(C)(O)[C@H](F)CNC(=O)c1cnc(-n2ncc3cc(C#N)cnc32)cc1Nc1ccn(CC(F)(F)F)n1 [Example 408],0.073,–,–
0.0175,Cn1nccc1Nc1cc(-n2ncc3cc(C#N)cnc32)ncc1C(=O)NC[C@@H](F)C(C)(C)O [Example 409],–,0.463,–
0.0015,CC(C)(O)[C@H](F)CNC(=O)c1cnc(-n2ncc3cc(C#N)cnc32)cc1Nc1cnn(-c2ncccn2)c1 [Example 410],–,0.092,–
0.0148,CC(C)Nc1cc(-n2ccc3cc(C#N)cnc32)ncc1C(=O)NC12CCC(O)(CC1)C2 [Example 415],–,0.286,–
0.0055,CC(C)Nc1cc(-n2ccc3cc(C#N)cnc32)ncc1C(=O)NCCCOC(C)(C)C [Example 417],–,0.171,–
0.0044,COc1cccc(Nc2cc(-n3ccc4cc(C#N)cnc43)ncc2C(=O)NC[C@@H](F)C(C)(C)O)c1 [Example 418],–,0.065,–
0.0044,CC(C)Nc1cc(-n2ccc3cc(C#N)cnc32)ncc1C(=O)N[C@H]1CC[C@@](F)(c2nccn2C)CC1 [Example 420],–,0.186,–
0.0023,CC(O)CCNc1cc(-n2ccc3cc(C#N)cnc32)ncc1C(=O)NC[C@@H](F)C(C)(C)O (stereo partly drawn) [Example 422],–,–,0.004
0.0046,CC(C)(O)[C@H]1CC[C@H](NC(=O)c2cnc(-n3ccc4cc(F)cnc43)cc2NC2CC2)CC1 [Example 428],–,0.361,–
0.0015,CC(C)(O)[C@H]1CC[C@H](NC(=O)c2cnc(-n3ccc4cc(C#N)cnc43)cc2NC2CC2)CC1 [Example 429],–,0.092,–
0.0021,C[C@@H](CO)Nc1cc(-n2ccc3cc(F)cnc32)ncc1C(=O)N[C@H]1CC[C@H](C(C)(C)O)CC1 [Example 432],–,0.08,–
0.0041,CCn1nnnc1-c1ccc(Nc2cc(-n3ccc4cc(C#N)cnc43)ncc2C(=O)NC[C@@H](F)C(C)(C)O)cc1 [Example 433],0.499,0.164,–
0.001,CC(C)(O)[C@H](F)CNC(=O)c1cnc(-n2ccc3cc(C#N)cnc32)cc1NC1COC1 [Example 437],–,0.042,–
0.0026,CC(C)(O)[C@H](F)CNC(=O)c1cnc(-n2ccc3cc(C#N)cnc32)cc1Nc1ccc2nc[nH]c2c1 [Example 439],–,0.073,–
0.003,CC(C)(O)[C@H](F)CNC(=O)c1cnc(-n2ccc3cc(C#N)cnc32)cc1N[C@H]1CCOC1 [Example 441],–,0.109,–
0.0053,CC(C)Nc1cc(-n2ccc3cc(C#N)cnc32)ncc1C(=O)NC1CCN(S(C)(=O)=O)CC1 [Example 447],–,0.092,–
0.0024,CCOC(C)(C)[C@H](F)CNC(=O)c1cnc(-n2ccc3cc(C#N)cnc32)cc1NC(C)C [Example 448],–,0.175,–
0.0015,CC(C)(O)[C@H](F)CNC(=O)c1cnc(-n2ccc3cc(C#N)cnc32)cc1N[C@@H]1CCN(c2ncc(F)cn2)C1 [Example 449],0.059,0.082,–
0.0028,C[C@@H](Nc1cc(-n2ccc3cc(C#N)cnc32)ncc1C(=O)NC[C@@H](F)C(C)(C)O)C1CC1 [Example 450],0.438,0.268,–
0.0044,CS(=O)(=O)NCCNC(=O)c1cnc(-n2ccc3cc(C#N)cnc32)cc1NC1CC1 [Example 453],0.326,0.213,–
0.0048,CC(C)(O)[C@H](F)CNC(=O)c1cnc(-n2ccc3cc(C#N)cnc32)cc1N[C@@H]1COC[C@H]1O [Example 456],–,–,0.241
0.0017,CC(C)(O)[C@H](F)CNC(=O)c1cnc(-n2ccc3cc(C#N)cnc32)cc1NC1CCN(S(C)(=O)=O)CC1 [Example 463],–,0.023,–
0.0031,CC(C)(O)[C@H](F)CNC(=O)c1cnc(-n2ccc3cc(C#N)cnc32)cc1NC1CCN(c2ccccc2)CC1 [Example 464],–,0.257,–
